According to patent US6794126B2, “Methods for preventing or inhibiting neuronal cell death” (The Trustees of Columbia University in the City of New York, priority 1996, dated 2004):
“Also recorded” adds a separate entry of the source. Residues, ends and D or L forms follow the SMILES beside them. *: point of attachment. Cbz = O=C(OCc1ccccc1)*; CH2F = FC*

How the values were obtained:
PC12 cells [1] = assay: PC12 cell survival after withdrawal of serum/NGF (trophic factor deprivation); assay type: cell-based, rat
Protocol: (§1) PC12 cells were grown as previously described (Greene and Tishcler, 1976) on rat-tail collagen-coated dishes in RPMI 1640 medium containing 5% fetal calf serum and 10% heat-inactivated horse serum (complete medium). NGF primed PC12 cells were grown for at least 7 days in RPMI 1640 medium plus 1% horse serum and NGF (100 ng/ml). For cell survival assays involving trophic factor deprivation, cells (either naive or NGF-pretreated) were extensively washed in serum-free RPMI 1640 medium and re-plated on fresh collagen-coated 24-well dishes as previously described (Rukenstein et al., 1991) in RPMI 1640 medium lacking serum or NGF. For SOD1 down-regulation survival assays, cells were re-plated in complete medium with V-ASOD1 (vector linked antisense oligonucleotide to SOD1, 50 nM). Various concentrations of ICE inhibitors were included in the medium as indicated. Numbers of viable cells per culture were determined by quantifying intact nuclei as previously described (Rukenstein et al., 1991). Counts were performed in triplicate and reported as means±SEM.

sympathetic neurons [2] = assay: Survival of cultured sympathetic neurons after NGF withdrawal (Example 1); assay type: cell-based, rat
Protocol: Sympathetic neuron cultures were prepared from 2 day old rat pups, as previously described (Ferrari et al., 1995). Cultures were grown in 24-well collagen coated dishes in RPMI 1640 medium plus 10% horse serum with mouse NGF (100 ng/ml). One day following plating, uridine and 5-fluorodeoxyuridine (10 μM each) were added to the cultures and left for three days to eliminate non-neuronal cells. On the sixth day following plating NGF was removed by washing the cultures three times with RPMI 1640 medium plus 10% horse serum, followed by the addition of medium containing anti-mouse NGF (1:200, Sigma) with or without ICE inhibitors. Each culture was scored, as previously described (Rydel and Greene, 1988), as numbers of living, phase-bright neurons at various times. Three replicate cultures were assessed for each condition and data were normalized to numbers of neurons present in each culture at the time of NGF withdrawal and reported as mean±SEM.

PC12 cells [3] = assay: PC12 cell survival after SOD1 down-regulation by V-ASOD1; assay type: cell-based, rat
Protocol: as §1

IL-1β = assay: Assay of IL-1β secreted by PC12 cells (ELISA); assay type: cell-based, rat; settings: 24 h
Protocol: IL-1β was quantified by ELISA using the Intertest-1βX kit (Genzyme, Cambridge, Mass.). PC12 cells were grown as described above, on 24-well plates, in 500 μl of medium. After one day incubation, medium was removed and IL-1β measured following the manufacturer's instructions, and number of viable cells in each well quantified.

sympathetic neurons [4] = assay: Survival of sympathetic neurons exposed to UV irradiation; assay type: cell-based, rat; settings: for survival of UV-treated sympathetic neurons: NGF present, pretreated before UV, flavopiridol 1 mM (sic, FIG. 6A), olomoucine 200 μM, isoolomoucine 200 μM, aphidicolin 10 μM; for concentration of maximal protection: UV-treated, day 1
Protocol: Cells were exposed to UV irradiation using the Stratolinker UV crosslinker (Stratagene®). Sympathetic neurons were exposed to 3×10^4 μJ while neuronal PC12 cells were exposed to […]. Each well was exposed with 200 μl of medium containing NGF with or without the appropriate drug. After irradiation 300 μl of additional medium containing NGF with or without drug was added.
(§2) The cells were plated onto collagen-coated 24-well dishes at a density of approximately 0.5 ganglia per well and maintained in RPMI 1640 medium supplemented with 10% heat-inactivated horse serum and 60 ng/ml mouse NGF for a period of three days prior to the survival experiment. A mixture of uridine and 5-fluorodeoxyuridine (10 mM each) was also added to eliminate non-neuronal cells on day two. No pretreatment with survival agent, unless otherwise noted, was necessary for effective survival of neurons exposed to AraC. In the case of UV irradiation, the neurons died quite rapidly. Accordingly, neuronal cultures were pretreated overnight (18 hr) with survival-promoting agents prior to UV irradiation. NGF deprivation was performed by washing with NGF-free medium and addition of anti-NGF antiserum as previously described (Park et al., 1996a). V-ASOD1 oligonucleotides, in conjunction with the nitric oxide generator, S-nitrosopenicillamine (SNAP; 100 μM) were added to the cultured sympathetic neurons as previously described (Troy et al., 1997). At appropriate times, the numbers of viable, phase bright neurons were determined by strip counting as previously described (Rydel and Greene; 1988). All experimental points are expressed relative to the original number of neurons present in each well and are reported as mean+/−SEM (n=3).

sympathetic neurons [5] = assay: Survival of sympathetic neurons treated with AraC; assay type: cell-based; settings: for survival of AraC-treated sympathetic neurons: NGF present, flavopiridol 1 mM, olomoucine 200 mM (printed, FIG. 8), isoolomoucine 200 μM, aphidicolin 10 μM; for maximal concentration required to protect from AraC: day 3; for toxicity of the CDK inhibitors to sympathetic neurons: beyond five days, even without AraC treatment
Protocol: A mixture of uridine and 5-fluorodeoxyuridine (10 mM each) was also added to eliminate non-neuronal cells on day two. No pretreatment with survival agent, unless otherwise noted, was necessary for effective survival of neurons exposed to AraC. In the case of UV irradiation, the neurons died quite rapidly. Accordingly, neuronal cultures were pretreated overnight (18 hr) with survival-promoting agents prior to UV irradiation. […] All experimental points are expressed relative to the original number of neurons present in each well and are reported as mean+/−SEM (n=3).

sympathetic neurons [6] = assay: Survival of sympathetic neurons depleted of SOD1 (V-ASOD1 plus SNAP); assay type: cell-based, rat
Protocol: as §2

sympathetic neurons [7] = assay: Survival of sympathetic neurons deprived of NGF (Example 2); assay type: cell-based, rat; settings: for death of sympathetic neurons deprived of NGF: CDK inhibitors, same experiments as SOD1 depletion (FIG. 10)
Protocol: as §2

sympathetic neurons [8] = assay: Survival of sympathetic neurons exposed to camptothecin; assay type: cell-based, rat; settings: V-linked peptides
neuronal PC12 cells = assay: Survival of neuronal PC12 cells depleted of SOD1 (Example 2); assay type: cell-based, rat
Protocol: Naive PC12 cells were cultured and passaged as previously described (Greene and Tischler, 1976). Neuronally-differentiated PC12 cells were generated by exposing PC12 cells to NGF in serum-free RPMI 1640 medium for 8-9 days. For survival experiments, neuronally-differentiated PC12 cells were plated onto collagen-coated 24-well tissue culture dishes at a density of approximately 2×10^5 cells per well. Neuronally-differentiated PC12 cells were cultured in serum-free RPMI 1640 medium containing NGF (100 ng/ml) throughout the course of survival experiments. At appropriate times of culture under the conditions described in the text, cells were lysed and the numbers of viable cells was evaluated as previously described (Rukenstein et al., 1991). All experimental points are expressed as a percentage of cells plated on day 0 and are reported as mean +/−SEM (n=3).

proliferating PC12 cells = proliferating PC12 cells (Park et al., 1996a); cited from earlier work

Molecule: CC[C@H](C)[C@H](N)C(=O)N[C@@H](CCC(N)=O)C(=O)N[C@@H](C)C(=O)N[C@@H](CSSC[C@H](N)C(=O)N[C@@H](CCCNC(=N)N)C(=O)N[C@@H](CCC(N)=O)C(=O)N[C@H](C(=O)N[C@@H](CCCCN)C(=O)N[C@H](C(=O)N[C@@H](Cc1c[nH]c2ccccc12)C(=O)N[C@@H](Cc1ccccc1)C(=O)N[C@@H](CCC(N)=O)C(=O)N[C@@H](CC(N)=O)C(=O)N[C@@H](CCCNC(=N)N)C(=O)N[C@@H](CCCNC(=N)N)C(=O)N[C@@H](CCSC)C(=O)N[C@@H](CCCCN)C(=O)N[C@@H](Cc1c[nH]c2ccccc12)C(=O)N[C@@H](CCCCN)C(=O)N[C@@H](CCCCN)C(=O)O)[C@@H](C)CC)[C@@H](C)CC)C(=O)N[C@@H](CCCNC(=N)N)C(=O)NCC(=O)O [V-ICEinh]
- time of partial protection (PC12 cells [1]; naive and primed PC12 cells, serum/NGF withdrawal): at least 8 days
- peptide concentration giving complete protection from death (PC12 cells [1]; naive and primed PC12 cells, serum/NGF withdrawal, 24 hours): 200 to 400 nM
- time for which death was retarded (sympathetic neurons [2]; 50 nM, NGF-deprived): at least 6 days
- time of complete protection from death (sympathetic neurons [2]; 50 nM, NGF-deprived): 3 days
- effect on the capacity of ASOD1 to lower cellular SOD1 (PC12 cells [3]): no effect
- dose required for maximal protection (PC12 cells [3]; V-ASOD1 50 nM, one day): 0.025 to 0.05 µM
- protection from death induced by down-regulation of SOD1 (PC12 cells [3]; naive and NGF-treated PC12 cells, V-ASOD1 50 nM, one day): protects
- increase in IL-1β secretion per cell after SOD1 down-regulation (IL-1β; V-ICEinh 25 nM for V-ASOD1 treatment): blocked
- death of sympathetic neurons exposed to UV (sympathetic neurons [4]; 200 nM, pretreated 18 hr): blocked death
- death of AraC-treated sympathetic neurons (sympathetic neurons [5]; 200 nM, AraC 100 μM): blocked death
- death of sympathetic neurons depleted of SOD1 (sympathetic neurons [6]; V-linked peptides): blocked death
- protection from NGF deprivation (sympathetic neurons [7]; 200 nM, pretreated 18 hr): protected
- death of sympathetic neurons exposed to camptothecin (sympathetic neurons [8]): blocked death

Molecule: CN1CC[C@H](c2c(O)cc(O)c3c(=O)cc(-c4ccccc4Cl)oc23)[C@H](O)C1 [flavopiridol]
- survival of UV-treated sympathetic neurons (sympathetic neurons [4]): effectively promoted survival
- concentration of maximal protection (sympathetic neurons [4]): 1 to 3 µM
- survival of AraC-treated sympathetic neurons (sympathetic neurons [5]; AraC 100 μM): quite effectively promoted long term survival
- maximal concentration required to protect from AraC (sympathetic neurons [5]; AraC 100 μM): 1 µM
- toxicity of the CDK inhibitors to sympathetic neurons (sympathetic neurons [5]): toxicity
- protection of sympathetic neurons depleted of SOD1 (sympathetic neurons [6]; ASOD1 50 nM with SNAP 100 μM): neither flavopiridol nor olomoucine protected
- death of sympathetic neurons deprived of NGF (sympathetic neurons [7]): effectively blocked the death
- death of neuronal PC12 cells depleted of SOD1 (neuronal PC12 cells): failed to inhibit death
- minimum concentration required to fully inhibit DNA synthesis (proliferating PC12 cells): 1 µM

Molecule: CC(C)[C@H](NC(=O)[C@H](Cc1ccc(O)cc1)NC(=O)OCc1ccccc1)C(=O)N[C@@H](C)C(=O)N[C@@H](CC(=O)O)C(=O)CCl [ZYVAD-CMK, ZYVAD-chloromethylketone]
- protection from trophic factor withdrawal (PC12 cells [1]; 250 μM): only partially effective; also recorded: partial protection
- protection from NGF deprivation (sympathetic neurons [2]; 250 μM): no effect
- protection from SOD1 down-regulation (PC12 cells [3]; 50 μM): full protection

Molecule: CC(=O)N[C@@H](Cc1ccc(O)cc1)C(=O)N[C@H](C(=O)N[C@@H](C)C(=O)N[C@@H](CC(=O)O)C(=O)CCl)C(C)C [acYVAD-cmk]
- death evoked by SOD1 depletion (sympathetic neurons [6]; 250 μM, two days, ASOD1 with SNAP 100 μM): blocks death
- death due to NGF deprivation (sympathetic neurons [7]; 250 μM, two days): not death due to NGF deprivation

Molecule: COC(=O)C[C@H](NC(=O)[C@H](C)NC(=O)[C@@H](NC(=O)OCc1ccccc1)C(C)C)C(=O)CF [ZVAD-FMK, ZVAD-fluoromethylketone] (Cbz-Val-Ala-Asp(OMe)-CH2F)
- concentration required to be fully protective (PC12 cells [1]; serum withdrawal, one day): 50 µM
- protection from NGF deprivation (sympathetic neurons [2]; 100 μM): protected
- dose required for maximal protection (PC12 cells [3]; V-ASOD1 50 nM, one day): 6 µM
- survival of sympathetic cultures exposed to UV irradiation (sympathetic neurons [4]; 50 μM, pretreated 16 hr): ineffective
- survival of sympathetic cultures exposed to AraC (sympathetic neurons [5]; 50 μM, AraC 100 μM): ineffective
- protection of sympathetic neurons depleted of SOD1 (sympathetic neurons [6]; 50 μM, exposed to nitric oxide generators): protected
- protection from death due to NGF-depletion (sympathetic neurons [7]; 50 μM): protects

Molecule: Cn1cnc2c(NCc3ccccc3)nc(NCCO)nc21 [olomoucine, 2-(2-hydroxyethylamino)-6-benzylamino-9-methylpurine]
- survival of UV-treated sympathetic neurons (sympathetic neurons [4]): effectively promoted survival
- concentration of maximal protection (sympathetic neurons [4]): 200 µM
- survival of AraC-treated sympathetic neurons (sympathetic neurons [5]; AraC 100 μM): quite effectively promoted long term survival
- maximal concentration required to protect from AraC (sympathetic neurons [5]; AraC 100 μM): 200 µM
- toxicity of the CDK inhibitors to sympathetic neurons (sympathetic neurons [5]): toxicity
- protection of sympathetic neurons depleted of SOD1 (sympathetic neurons [6]; ASOD1 50 nM with SNAP 100 μM): neither flavopiridol nor olomoucine protected
- death of sympathetic neurons deprived of NGF (sympathetic neurons [7]): effectively blocked the death
- death of neuronal PC12 cells depleted of SOD1 (neuronal PC12 cells): failed to inhibit death
- minimum concentration required to fully inhibit DNA synthesis (proliferating PC12 cells): 200 µM

Molecule: Cn1cnc2nc(NCCO)nc(NCc3ccccc3)c21 [isoolomoucine]
- survival of UV-treated sympathetic neurons (sympathetic neurons [4]): nearly ineffective
- survival of AraC-treated sympathetic neurons (sympathetic neurons [5]; AraC 100 μM): ineffective

Molecule: C[C@@]1(CO)[C@H](O)CC[C@@]2(C)[C@H]1CC[C@H]1C[C@@H]3C[C@@]12CC[C@]3(O)CO [aphidicolin]
- survival of UV-treated sympathetic neurons (sympathetic neurons [4]): failed to block death
- survival of AraC-treated sympathetic neurons (sympathetic neurons [5]; AraC 100 μM): failed to block death

B1: rmIL-1Ra: IL-1 receptor antagonist (protein, UniProt P25085 27-178, looked up)
Interleukin-1 receptor …: RPSGKRPCKMQAFRIWDTNQKTFYLRNNQLIAGYLQGPNIKLEEKIDMVPIDLHSVFLGIHGGKLCLSCAKSGDDIKLQLEEVNITDLSKNKEEDKRFTFIRSEKGPTTSFESAACPGWFLCTTLEADRPVSLTNTPEEPLIVTKFYFQEDQ
- protection from trophic factor withdrawal (PC12 cells [1]; 10,000 ng/ml, one day): improved survival under these conditions only modestly
- suppression of cell death of V-ASOD1 treated PC12 cells (PC12 cells [3]; 100 ng/ml): completely suppressed cell death

B2: NGF: nerve growth factor (mouse NGF) (protein, UniProt P01139 122-241, looked up)
Beta-nerve growth factor: SSTHPVFHMGEFSVCDSVSVWVGDKTTATDIKGKEVTVLAEVNINNSVFRQYFFETKCRASNPVESGCRGIDSKHWNSYCTTTHTFVKALTTDEKQAAWRFIRIDTACVCVLSRKATRRG
- increase in IL-1β secretion (IL-1β; cells treated with NGF): 4 fold
